Measurements reported in patent publication US5418239A, “Tricyclic heterocyclic compounds, their production and use” (Takeda Chemical Industries, Ltd., priority 1990, dated 1995).

Experiments:
[1] = biological target: T1, Acyl-CoA:cholesterol transferase (ACAT) (Rattus norvegicus, UniProt Q7TQM4); assay: Acyl-CoA:cholesterol transferase (ACAT) inhibitory activity (labeled cholesterol ester production, small intestinal mucosal microsome fraction); type: biochemical, male sprague-Dawley rat; settings: rat small intestinal mucosal microsomes; for inhibition at 1 µM: 10^-6 M test compound, read-out: ACAT inhibition rate (%) (labeled cholesterol ester production inhibiting rate); for IC50: plotted at a plurality of concentration levels, read-out: IC50 (50% inhibitory concentration, ACAT)
T1 construct: small intestinal mucosal microsome fraction of a 6-week-old male sprague-Dawley rat; from tissue; host or cells: small intestinal mucosal microsome fraction, 6-week-old male Sprague-Dawley rat
T1 sequence (Q7TQM4 1-524): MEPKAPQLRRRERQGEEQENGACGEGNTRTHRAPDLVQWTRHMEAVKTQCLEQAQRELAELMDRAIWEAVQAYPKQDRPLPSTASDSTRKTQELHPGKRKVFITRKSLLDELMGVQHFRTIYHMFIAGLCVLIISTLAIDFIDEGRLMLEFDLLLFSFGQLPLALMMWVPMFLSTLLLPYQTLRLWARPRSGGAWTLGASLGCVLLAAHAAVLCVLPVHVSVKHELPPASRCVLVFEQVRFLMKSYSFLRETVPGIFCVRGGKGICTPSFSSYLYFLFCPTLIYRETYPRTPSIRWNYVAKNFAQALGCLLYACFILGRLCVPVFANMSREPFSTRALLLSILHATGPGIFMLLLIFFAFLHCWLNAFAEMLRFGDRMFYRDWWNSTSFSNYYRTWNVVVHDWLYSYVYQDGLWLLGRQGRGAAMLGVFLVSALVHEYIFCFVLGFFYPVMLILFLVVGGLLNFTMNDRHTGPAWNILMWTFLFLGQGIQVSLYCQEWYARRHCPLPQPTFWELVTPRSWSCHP
Description: Samples of ACAT enzyme were prepared from the small intestinal mucosal microsome fraction of a 6-week-old male sprague-Dawley rat fasted for 20 hours in accordance with the procedure described by Heider et al, Journal of Lipid Research 24, 1127 (1982).
ACAT activity was determined in accordance with the method of Helgerud et al., Journal of Lipid Research 22, 271 (1981), by measuring the amount of labeled cholesterol ester produced from [1-^14 C]oloyl-CoA and endogenous cholesterol.
The 50% inhibitory concentration (IC50) determined by plotting at a plurality of concentration levels is also shown.

plasma cholesterol = assay: Plasma cholesterol lowering activity in cholesterol-fed rats; type: in vivo, Male Sprague-Dawley rats; settings: 1% cholesterol diet containing 0.0003% test compound, 7 days; ingested about 0.23-0.24 mg/kg/day; mean ± S.D.; * p < 0.05 (t-test) against control group (181.8 ± 60.4)
Description: Male Sprague-Dawley rats aged 7 weeks were divided into groups based on body weight and put on a 1% cholesterol diet (the rat diet supplemented with 0.5% cholic acid and 5% olive oil) containing 0.0003% of the test compound for 7 days. The blood was sampled from surfeited rats between 8:30 and 10:00 a.m. and the plasma cholesterol concentration was enzymatically determined. The amount of the compound ingested was calculated from the food consumption.

| SMILES | inhibition at 1 µM [1] [%] | IC50 [1] [nM] | Plasma cholesterol (plasma cholesterol) [mg/dL] |
| --- | --- | --- | --- |
| Cc1ccccc1-c1c(NC(=O)Nc2ccc(F)cc2F)cnc2cc3c(cc12)CCC3 [Example 2, N-[7,8-Dihydro-4-(2-methylphenyl)-6H-cyclopenta[g]-quinolin-3-yl]-N'-(2,4-difluorophenyl)urea] | 99.2 | 3.9 | 78.5 ± 10.2 |
| Cc1ccccc1-c1c(NC(=O)Nc2ccc(F)cc2F)c(=O)oc2cc3c(cc12)CCC3 [Example 3, N-(2,4-difluorophenyl)-N'-[4-(2-methylphenyl)-2-oxo-2,6,7,8-tetrahydrocyclopenta[g][1]-benzopyran-3-yl]urea] | 99.5 | – | 78.1 ± 12.6 |
| CC(C)(C)c1cc(-c2c(NC(=O)Nc3ccc(F)cc3F)c(=O)oc3cc4c(cc23)CCC4)cc(C(C)(C)C)c1O [Example 8, N-[4-(3,5-di-tert-butyl-4-hydroxyphenyl)-2-oxo-2,6,7,8-tetrahydrocyclopenta[g] [1]benzopyran-3-yl]-N'-(2,4-difluorophenyl]urea] | 99 | – | – |
| Cc1ccccc1-c1c(NC(=O)Nc2cc(C)c(O)c(C)c2)c(=O)oc2cc3c(cc12)CCC3 [Example 17, N-(4-hydroxy-3,5-dimethylphenyl)-N'-[4-(2-methylphenyl)-2-oxo-2,6,7,8-tetrahydrocyclopenta-[g] [1]benzopyran-3-yl]urea] | 97.6 | – | – |
| CC(=O)Oc1c(C)cc(NC(=O)Nc2c(-c3ccccc3C)c3cc4c(cc3n(C)c2=O)CCC4)cc1C [Example 12, N-(4-acetoxy-3,5-dimethylphenyl)-N'-[1-methyl-4-(2-methylphenyl)-2-oxo-l,2,7,8-tetrahydro-6H-cyclopenta[g]quinolin-3-yl]urea] | 91.1 | – | – |
| COc1ccc(C=CC(=O)Nc2c(-c3ccccc3C)c3cc4c(cc3oc2=O)CCC4)cc1OC [Example 13, 3-(3,4-dimethoxycinnamoylamino) -4-(2-methylphenyl)-7,8-dihydrocyclopenta[g] 1benzopyran-2(6H)-one] | 89.9 | – | – |
| Cc1ccccc1-c1c(NC(=O)C=Cc2ccc(O)c(O)c2)c(=O)oc2cc3c(cc12)CCC3 [Example 18, 3-(3,4-dihydroxycinnamoylamino)-4-(2-methylphenyl)-7,8-dihydrocyclopenta [g] [1]benzopyran-2(6H)-one] | 86.9 | – | – |
| COc1nc2cc3c(cc2c(-c2ccccc2Cl)c1NC(=O)Nc1cc(C)c(OC(C)=O)c(C)c1)CCC3 [Example 11, N-(4-acetoxy-3,5-dimethylphenyl)-N'-[4-(2-chlorophenyl)-7,8-dihydro-2-methoxy-6H-cyclopenta[g]-quinolin-3-yl]urea] | 75.6 | – | – |
| Cc1ccccc1-c1c(NC(=O)Cc2cc(C(C)(C)C)c(O)c(C(C)(C)C)c2)c(=O)oc2cc3c(cc12)CCC3 [Example 15, 3-(3,5-di-tert-butyl-4-hydroxyphenylacetylamino) -4-(2-methylphenyl)-7,8-dihydrocyclopenta-[g] [1]benzopyran-2(6H)-one] | 89.6 | – | – |
| Cc1ccccc1-c1c(NC(=O)Nc2ccc(F)cc2F)c(=O)n(C)c2cc3c(cc12)CCC3 [Example 19, N-(2,4-difluorophenyl)-N'-[1-methyl-4-(2-methylphenyl)-2-oxo-l,2,7,8-tetrahydro-6H-cyclopenta-[g]quinolin-3-yl]urea] | 98.2 | – | – |
| O=C(Cc1ccc(F)cc1F)Nc1cnc2cc3c(cc2c1-c1ccccc1Cl)CCC3 [Example 4, 4-(2-chlorophenyl)-3-(2,4-difluorophenylacetylamino)-7,8-dihydro-6H-cyclopenta(g)quinoline] | 91.5 | – | – |
| Cc1ccccc1-c1c(NC(=O)Nc2ccc(F)cc2F)c(=O)oc2cc3c(cc12)CCCC3 [Example 10, N-(2,4-difluorophenyl)-N'-[4-(2-methylphenyl)-6,7,8,9-tetrahydro-2-oxo-2H-naphtho[2,3-b]pyran-3-yl]urea] | 98.7 | – | – |
| Cc1ccccc1-c1c(NC(=O)Nc2ccc(N(C)C)cc2)c(=O)oc2cc3c(cc12)CCC3 [Example 9, N-(4-dimethylaminophenyl)-N'-[4-(2-methylphenyl)-2-oxo-2,6,7,8-tetrahydrocyclopenta[g] [1]benzo-pyran-3-yl]urea] | 94.6 | – | – |
| O=C(Nc1ccc(F)cc1F)Nc1cnc2cc3c(cc2c1-c1ccccc1Cl)CCC3 [Example 1, N-[4-(2-chlorophenyl)-7,8-dihydro-6H-cyclopenta[g]quinolin-3-yl]-N'-(2,4-difluorophenyl)urea] | 99.3 | 3.8 | 80.8 ± 18.6 |
| COc1cc(NC(=O)Nc2c(-c3ccccc3C)c3cc4c(cc3oc2=O)CCC4)cc(OC)c1O [Example 16, N-(4-hydroxy-3,5-dimethoxyphenyl)-N'-[4-(2-methylphenyl)-2-oxo-2,6,7,8-tetrahydrocyclopenta [g] [1]benzopyran-3-yl]urea] | 94.4 | – | – |
